target: T1, Aurora-2 (Aurora A) (Homo sapiens, UniProt O14965); assay: Aurora-2 (Aurora A) Inhibition Assay (coupled enzyme assay); format: biochemical; conditions: not given
T1 sequence (O14965 1-403): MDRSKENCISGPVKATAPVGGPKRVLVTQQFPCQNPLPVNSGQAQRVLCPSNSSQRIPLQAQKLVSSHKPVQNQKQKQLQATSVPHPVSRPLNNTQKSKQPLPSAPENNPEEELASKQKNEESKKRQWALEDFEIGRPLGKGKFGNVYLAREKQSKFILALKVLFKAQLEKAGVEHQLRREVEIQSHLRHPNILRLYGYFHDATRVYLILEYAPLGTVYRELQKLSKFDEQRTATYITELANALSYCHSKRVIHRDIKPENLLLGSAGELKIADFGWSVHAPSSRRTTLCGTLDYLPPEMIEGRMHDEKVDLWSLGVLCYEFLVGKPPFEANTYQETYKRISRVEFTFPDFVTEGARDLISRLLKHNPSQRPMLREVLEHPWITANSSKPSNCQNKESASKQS
Description: Assays were carried out in a mixture of 100 mM Hepes (pH7.5), 10 mM MgCl2, 1 mM DTT, 25 mM NaCl, 2.5 mM phosphoenolpyruvate, 300 μM NADH, 30 μg/ml pyruvate kinase and 10 μg/ml lactate dehydrogenase. […] Assays were carried out at 30° C. and in the presence of 40 nM Aurora-2.
An assay stock buffer solution was prepared containing all of the reagents listed above, with the exception of Aurora-2 and the test compound of interest. […] The plate was preincubated for 10 minutes at 30° C. and the reaction initiated by addition of 10 μl of Aurora-2. Initial reaction rates were determined with a Molecular Devices SpectraMax Plus plate reader over a 10 minute time course. IC50 and Ki data were calculated from non-linear regression analysis using the Prism software package (GraphPad Prism version 3.0cx for Macintosh, GraphPad Software, San Diego Calif., USA).

Row | Ki | SMILES
1 | 2.12 nM | CCC(=O)Nc1ccc(Sc2nc(Nc3cc(C)n[nH]3)cc(N3CCN(C(C)(C)C)CC3)n2)cc1 [Compound 2]

same assay, conditions: read-out: Aurora A Ki

Row | SMILES | Ki
2 | Cc1cc(Nc2cc(N3CCN(C(C)(C)C)CC3)nc(Sc3ccc(NC(=O)C4CC4)cc3)n2)[nH]n1 [Compound 3] | 2.12 nM
3 | CCC(=O)Nc1ccc(Sc2nc(Nc3cc(C)n[nH]3)cc(N3CCC4(CCN(C)C4)CC3)n2)cc1 [Compound 17] | 2.05 nM
4 | CCC(=O)Nc1ccc(Sc2nc(Nc3cc(C)n[nH]3)cc(N3CCC(C#N)(c4ccccc4OC)CC3)n2)cc1 [Compound 25] | 0.895 nM
5 | CCC(=O)Nc1ccc(Sc2nc(Nc3cc(C)n[nH]3)cc(N3CC[C@H](N4CCCC4)C3)n2)cc1 [Compound 16] | 5.75 nM
6 | CCC(=O)Nc1ccc(Sc2nc(Nc3cc(C)n[nH]3)cc(N3CCC(O)(c4cc(F)ccc4OC)CC3)n2)cc1 [Compound 24] | 0.365 nM
7 | CCC(=O)Nc1ccc(Sc2nc(Nc3cc(C)n[nH]3)cc(N3CC(O)(C(C)(C)C)C3)n2)cc1 [Compound 20] | 0.35 nM
8 | CCC(=O)Nc1ccc(Sc2nc(Nc3cc(C)n[nH]3)cc(N3CC(O)(C(C)C)C3)n2)cc1 [Compound 30] | 1.15 nM
9 | CCC(=O)Nc1ccc(Sc2nc(Nc3cc(C)n[nH]3)cc(N3CC4CN(C(C)C)CC4C3)n2)cc1 (stereo not drawn) [Compound 19] | 5.4 nM
10 | Cc1cc(Nc2cc(N3CCC(N4CCCC4)CC3)nc(Sc3ccc4ccccc4c3)n2)[nH]n1 [Compound 33] | 6.85 nM
11 | CCOc1ccc(Sc2nc(Nc3cc(C)n[nH]3)cc(N3CCN(C(C)(C)C)CC3)n2)cc1 [Compound 36] | 5.2 nM
12 | CCC(=O)Nc1ccc(Sc2nc(Nc3cc(C)n[nH]3)cc(N3CC(O)(C4CC4)C3)n2)cc1 [Compound 21] | 0.387 nM

Second part, the compound after the results:

Row | Ki | SMILES
13 | 2.77 nM | CCC(=O)Nc1ccc(Sc2nc(Nc3cc(C)n[nH]3)cc(N3CCN(C(C)(C)CO)CC3)n2)cc1 [Compound 8]
14 | 7.7 nM | CCC(=O)Nc1ccc(Sc2nc(Nc3cc(C)n[nH]3)cc(N3CCC(NC(C)(C)C)CC3)n2)cc1 [Compound 11]
15 | 1.82 nM | C#CC(C)(C)N1CCN(c2cc(Nc3cc(C)n[nH]3)nc(Sc3ccc(NC(=O)CC)cc3)n2)CC1 [Compound 6]
16 | 0.524 nM | CCC(=O)Nc1ccc(Sc2nc(Nc3cc(C)n[nH]3)cc(N3CC=C(C(C)(C)C)CC3)n2)cc1 [Compound 23]
17 | 0.707 nM | Cc1cc(Nc2cc(N3CCC3)nc(Sc3ccc(NC(=O)CC(F)(F)F)cc3)n2)n[nH]1 [Compound 12]

tested on: tumor; assay: Animal model of tumor growth inhibition, once a week dosing; format: in vivo; conditions: not given
Source text: Applicants have discovered that for compounds that display a […] binding mechanism with slow, tight-binding kinetics, the Ki* value is a much better predictive tool for cell potency than is Ki. In some embodiments, such compounds have a strong pharmacodynamic profile, resulting in long term cell activity that would allow for shorter dosing regimens in vivo. A typical dosing regimen for Aurora inhibitors in animal models is, e.g., at least once a day dosing. In one embodiment, applicants' invention allows for selecting compounds that may be dosed less than once a day.

Row | SMILES | tumor growth inhibition
18 | CCC(=O)Nc1ccc(Sc2nc(Nc3cc(C)n[nH]3)cc(N3CCN(C(C)(C)C)CC3)n2)cc1 [Compound 2] | very good tumor growth inhibition

target: Aurora-1 (Aurora B) (Homo sapiens, UniProt Q96GD4); assay: Aurora-1 (Aurora B) Inhibition Assay (Radiometric); format: biochemical; conditions: not given
Description: An assay buffer solution was prepared which consisted of 25 mM HEPES (pH 7.5), 10 mM MgCl2, 0.1% BSA and 10% glycerol. […] To 22 μL of the Aurora-B solution, in a 96-well plate, was added 2 μl of a compound stock solution in DMSO and the mixture allowed to equilibrate for 10 minutes at 25° C. The enzyme reaction was initiated by the addition of 16 μl stock [γ-^33P]-ATP solution (˜20 nCi/μL) prepared in assay buffer, to a final assay concentration of 800 μM. The reaction was stopped after 3 hours by the addition of 16 μL 500 mM phosphoric acid and the levels of ^33P incorporation into the peptide substrate were determined by the following method.
A phosphocellulose 96-well plate (Millipore, Cat no. MAPHNOB50) was pre-treated with 100 μL of a 100 mM phosphoric acid prior to the addition of the enzyme reaction mixture (40 μL). The solution was left to soak on to the phosphocellulose membrane for 30 minutes and the plate subsequently washed four times with 200 μL of a 100 mM phosphoric acid. […] Levels of non-enzyme catalyzed background radioactivity were determined by adding 16 μL of the 500 mM phosphoric acid to control wells, containing all assay components (which acts to denature the enzyme), prior to the addition of the [γ-^33P]-ATP solution. Levels of enzyme catalyzed ^33P incorporation were calculated by subtracting mean background counts from those measured at each inhibitor concentration. […] Ki values were calculated from initial rate data by non-linear regression using the Prism software package (Prism 3.0, Graphpad Software, San Diego, Calif.).

Aurora-1 (Aurora B), sequence (Q96GD4 whole entry): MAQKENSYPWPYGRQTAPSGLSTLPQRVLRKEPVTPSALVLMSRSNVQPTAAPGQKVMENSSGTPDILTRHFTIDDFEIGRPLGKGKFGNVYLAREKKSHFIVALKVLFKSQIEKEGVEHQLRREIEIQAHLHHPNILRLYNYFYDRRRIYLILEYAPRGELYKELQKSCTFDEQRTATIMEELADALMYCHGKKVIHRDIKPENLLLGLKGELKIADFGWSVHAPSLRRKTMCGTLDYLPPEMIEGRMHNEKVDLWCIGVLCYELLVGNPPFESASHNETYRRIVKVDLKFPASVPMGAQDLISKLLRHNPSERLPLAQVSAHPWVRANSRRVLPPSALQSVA

Row | SMILES | Ki
19 | Cc1cc(Nc2cc(N3CCN(C(C)(C)C)CC3)nc(Sc3ccc(NC(=O)C4CC4)cc3)n2)[nH]n1 [Compound 3] | 22.3 nM
20 | CCC(=O)Nc1ccc(Sc2nc(Nc3cc(C)n[nH]3)cc(N3CCC4(CCN(C)C4)CC3)n2)cc1 [Compound 17] | 59.7 nM
21 | CCC(=O)Nc1ccc(Sc2nc(Nc3cc(C)n[nH]3)cc(N3CCC(C#N)(c4ccccc4OC)CC3)n2)cc1 [Compound 25] | 230 nM
22 | CCC(=O)Nc1ccc(Sc2nc(Nc3cc(C)n[nH]3)cc(N3CC[C@H](N4CCCC4)C3)n2)cc1 [Compound 16] | 97.7 nM
23 | CCC(=O)Nc1ccc(Sc2nc(Nc3cc(C)n[nH]3)cc(N3CCC(O)(c4cc(F)ccc4OC)CC3)n2)cc1 [Compound 24] | 140 nM
24 | CCC(=O)Nc1ccc(Sc2nc(Nc3cc(C)n[nH]3)cc(N3CC(O)(C(C)(C)C)C3)n2)cc1 [Compound 20] | 4.5 nM
25 | CCC(=O)Nc1ccc(Sc2nc(Nc3cc(C)n[nH]3)cc(N3CC4CN(C(C)C)CC4C3)n2)cc1 (stereo not drawn) [Compound 19] | 34.5 nM
26 | Cc1cc(Nc2cc(N3CCC(N4CCCC4)CC3)nc(Sc3ccc4ccccc4c3)n2)[nH]n1 [Compound 33] | 64 nM
27 | CCOc1ccc(Sc2nc(Nc3cc(C)n[nH]3)cc(N3CCN(C(C)(C)C)CC3)n2)cc1 [Compound 36] | 45.5 nM

Results, then the compound that gave them:

Row | Ki | SMILES
28 | 15.3 nM | CCC(=O)Nc1ccc(Sc2nc(Nc3cc(C)n[nH]3)cc(N3CCN(C(C)(C)CO)CC3)n2)cc1 [Compound 8]
29 | 28 nM | CCC(=O)Nc1ccc(Sc2nc(Nc3cc(C)n[nH]3)cc(N3CCC(NC(C)(C)C)CC3)n2)cc1 [Compound 11]
30 | 14 nM | C#CC(C)(C)N1CCN(c2cc(Nc3cc(C)n[nH]3)nc(Sc3ccc(NC(=O)CC)cc3)n2)CC1 [Compound 6]
31 | 612 nM | CCC(=O)Nc1ccc(Sc2nc(Nc3cc(C)n[nH]3)cc(N3CC=C(C(C)(C)C)CC3)n2)cc1 [Compound 23]
32 | 7.17 nM | Cc1cc(Nc2cc(N3CCC3)nc(Sc3ccc(NC(=O)CC(F)(F)F)cc3)n2)n[nH]1 [Compound 12]
33 | 11.2 nM | CCC(=O)Nc1ccc(Sc2nc(Nc3cc(C)n[nH]3)cc(N3CCN(C(C)(C)C)CC3)n2)cc1 [Compound 2]
